Experiments:
Assay in all cases: KINOMEscan competition binding
Conditions in all cases: compound 10.0 µM
CLK3 (human) = CLK3 (human) (UniProt P49761)
MKNK1 (human) = MKNK1 (human) (UniProt Q9BUB5)
LTK (human) = LTK (human) (UniProt P29376)
MYLK2 (human) = MYLK2 (human) (UniProt Q9H1R3)
[1] = system: EGFR (human), P00533 [A750P; 747-749 del]
CSK (human) = CSK (human) (UniProt P41240)
PLK2 (human) = PLK2 (human) (UniProt Q9NYY3)
STK38L (human) = STK38L (human) (UniProt Q9Y2H1)
MAPK1 (human) = MAPK1 (human) (UniProt P28482)
PDGFRB (human) = PDGFRB (human) (UniProt P09619)
DYRK1B (human) = DYRK1B (human) (UniProt Q9Y463)
PIP5K1C (human) = PIP5K1C (human) (UniProt O60331)
Sequence of PIP5K1C (human) (O60331 whole entry, looked up): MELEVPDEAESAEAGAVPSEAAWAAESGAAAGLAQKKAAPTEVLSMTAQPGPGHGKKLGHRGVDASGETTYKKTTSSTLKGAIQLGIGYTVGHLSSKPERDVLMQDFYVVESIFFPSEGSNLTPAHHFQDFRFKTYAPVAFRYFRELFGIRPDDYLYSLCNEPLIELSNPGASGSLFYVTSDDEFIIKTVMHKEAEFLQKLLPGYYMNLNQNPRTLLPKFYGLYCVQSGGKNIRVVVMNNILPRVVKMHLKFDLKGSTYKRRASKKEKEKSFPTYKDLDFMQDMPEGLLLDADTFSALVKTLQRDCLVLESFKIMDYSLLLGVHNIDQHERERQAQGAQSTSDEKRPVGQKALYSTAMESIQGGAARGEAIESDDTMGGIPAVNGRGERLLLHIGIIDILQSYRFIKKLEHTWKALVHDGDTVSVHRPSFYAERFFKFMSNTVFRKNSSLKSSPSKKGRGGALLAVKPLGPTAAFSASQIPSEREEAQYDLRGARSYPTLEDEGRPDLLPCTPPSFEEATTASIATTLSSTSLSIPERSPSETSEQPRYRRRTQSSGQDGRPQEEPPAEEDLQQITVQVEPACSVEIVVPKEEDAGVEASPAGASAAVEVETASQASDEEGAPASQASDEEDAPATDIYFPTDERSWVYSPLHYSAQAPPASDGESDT

MAP4K5 (human) = MAP4K5 (human) (UniProt Q9Y4K4)
Sequence of MAP4K5 (human) (Q9Y4K4 whole entry, looked up): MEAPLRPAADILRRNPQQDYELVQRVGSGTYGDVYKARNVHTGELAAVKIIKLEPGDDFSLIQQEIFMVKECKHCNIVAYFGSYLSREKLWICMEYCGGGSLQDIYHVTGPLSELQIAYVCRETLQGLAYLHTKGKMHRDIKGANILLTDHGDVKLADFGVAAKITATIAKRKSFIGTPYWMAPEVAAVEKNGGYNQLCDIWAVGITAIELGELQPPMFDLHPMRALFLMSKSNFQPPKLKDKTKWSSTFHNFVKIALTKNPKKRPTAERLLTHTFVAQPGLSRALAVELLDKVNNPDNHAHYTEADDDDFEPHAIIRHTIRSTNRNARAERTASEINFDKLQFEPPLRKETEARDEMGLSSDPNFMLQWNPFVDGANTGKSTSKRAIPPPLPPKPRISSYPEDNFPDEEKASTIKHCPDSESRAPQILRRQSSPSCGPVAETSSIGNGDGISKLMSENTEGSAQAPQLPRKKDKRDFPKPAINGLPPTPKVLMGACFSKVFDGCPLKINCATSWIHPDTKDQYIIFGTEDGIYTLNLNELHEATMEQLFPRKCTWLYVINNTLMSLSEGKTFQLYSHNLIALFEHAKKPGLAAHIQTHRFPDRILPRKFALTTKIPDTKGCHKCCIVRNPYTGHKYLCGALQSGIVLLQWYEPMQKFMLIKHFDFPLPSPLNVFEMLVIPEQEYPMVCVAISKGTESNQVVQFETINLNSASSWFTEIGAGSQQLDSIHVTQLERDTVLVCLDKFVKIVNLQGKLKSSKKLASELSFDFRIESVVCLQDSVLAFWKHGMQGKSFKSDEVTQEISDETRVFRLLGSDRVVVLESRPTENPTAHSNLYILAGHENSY

SLK (human) = SLK (human) (UniProt Q9H2G2)
EIF2AK1 (human) = EIF2AK1 (human) (UniProt Q9BQI3)
PAK4 (human) = PAK4 (human) (UniProt O96013)
MAPKAPK5 (human) = MAPKAPK5 (human) (UniProt Q8IW41)
OXSR1 (human) = OXSR1 (human) (UniProt O95747)
PIP4K2C (human) = PIP4K2C (human) (UniProt Q8TBX8)
[2] = target: TYK2 JH1 catalytic (human) (UniProt P29597)
FGR (human) = FGR (human) (UniProt P09769)
Sequence of FGR (human) (P09769 whole entry, looked up): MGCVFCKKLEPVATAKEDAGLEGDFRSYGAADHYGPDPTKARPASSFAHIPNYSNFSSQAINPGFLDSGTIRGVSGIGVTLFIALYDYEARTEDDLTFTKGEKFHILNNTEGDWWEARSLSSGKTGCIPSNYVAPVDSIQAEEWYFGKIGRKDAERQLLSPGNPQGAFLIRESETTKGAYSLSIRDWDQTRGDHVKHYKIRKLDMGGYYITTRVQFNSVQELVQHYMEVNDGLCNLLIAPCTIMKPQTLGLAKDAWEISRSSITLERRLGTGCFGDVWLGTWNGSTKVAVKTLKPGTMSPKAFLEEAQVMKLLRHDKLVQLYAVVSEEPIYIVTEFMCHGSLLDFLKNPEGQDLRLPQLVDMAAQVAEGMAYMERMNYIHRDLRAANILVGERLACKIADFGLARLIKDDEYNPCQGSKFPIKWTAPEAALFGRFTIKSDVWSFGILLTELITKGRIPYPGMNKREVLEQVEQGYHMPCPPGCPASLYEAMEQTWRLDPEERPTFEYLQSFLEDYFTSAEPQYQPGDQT

FRK (human) = FRK (human) (UniProt P42685)
TXK (human) = TXK (human) (UniProt P42681)
CSF1R (human) = CSF1R (human) (UniProt P07333)
ITK (human) = ITK (human) (UniProt Q08881)
CDKL5 (human) = CDKL5 (human) (UniProt O76039)
RPS6KA6 KD2 (human) = RPS6KA6 KD2 (human) (UniProt Q9UK32)
[3] = target: JAK1 JH2 pseudokinase (human) (UniProt P23458)
Sequence of JAK1 JH2 pseudokinase (human) (P23458 whole entry, looked up): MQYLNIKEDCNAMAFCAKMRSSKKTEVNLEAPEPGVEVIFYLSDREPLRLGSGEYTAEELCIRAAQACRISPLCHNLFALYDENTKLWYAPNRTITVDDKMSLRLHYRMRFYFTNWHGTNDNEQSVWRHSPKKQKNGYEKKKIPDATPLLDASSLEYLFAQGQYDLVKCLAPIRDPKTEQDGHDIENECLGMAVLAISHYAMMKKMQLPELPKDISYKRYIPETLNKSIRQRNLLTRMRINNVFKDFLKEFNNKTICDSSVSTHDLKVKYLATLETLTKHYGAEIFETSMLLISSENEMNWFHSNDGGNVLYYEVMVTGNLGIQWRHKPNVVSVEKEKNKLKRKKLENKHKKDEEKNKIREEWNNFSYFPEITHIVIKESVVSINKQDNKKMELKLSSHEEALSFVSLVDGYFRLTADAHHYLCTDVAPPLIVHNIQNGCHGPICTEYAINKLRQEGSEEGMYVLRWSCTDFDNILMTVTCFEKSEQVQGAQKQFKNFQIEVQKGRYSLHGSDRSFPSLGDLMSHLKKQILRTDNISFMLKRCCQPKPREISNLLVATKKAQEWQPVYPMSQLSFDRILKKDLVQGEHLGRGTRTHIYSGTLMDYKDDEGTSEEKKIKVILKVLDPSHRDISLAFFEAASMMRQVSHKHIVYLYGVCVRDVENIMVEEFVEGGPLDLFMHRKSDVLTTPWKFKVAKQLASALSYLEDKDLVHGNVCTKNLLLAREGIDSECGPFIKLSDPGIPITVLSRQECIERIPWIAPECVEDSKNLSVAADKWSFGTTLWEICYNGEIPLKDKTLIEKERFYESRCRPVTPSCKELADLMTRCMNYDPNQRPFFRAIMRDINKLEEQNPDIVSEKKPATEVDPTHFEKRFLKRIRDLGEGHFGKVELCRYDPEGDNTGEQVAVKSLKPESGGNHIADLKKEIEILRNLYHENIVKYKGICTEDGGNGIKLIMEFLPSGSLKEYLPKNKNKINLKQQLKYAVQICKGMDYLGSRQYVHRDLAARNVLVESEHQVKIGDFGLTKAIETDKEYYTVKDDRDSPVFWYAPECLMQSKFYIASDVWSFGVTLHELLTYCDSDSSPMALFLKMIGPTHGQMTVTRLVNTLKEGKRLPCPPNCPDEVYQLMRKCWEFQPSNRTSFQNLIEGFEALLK

RPS6KA2 KD1 (human) = RPS6KA2 KD1 (human) (UniProt Q15349)
NTRK1 (human) = NTRK1 (human) (UniProt P04629)
[4] = target: JAK3 JH1 catalytic (human) (UniProt P52333)
MAPKAPK2 (human) = MAPKAPK2 (human) (UniProt P49137)
Sequence of MAPKAPK2 (human) (P49137 whole entry, looked up): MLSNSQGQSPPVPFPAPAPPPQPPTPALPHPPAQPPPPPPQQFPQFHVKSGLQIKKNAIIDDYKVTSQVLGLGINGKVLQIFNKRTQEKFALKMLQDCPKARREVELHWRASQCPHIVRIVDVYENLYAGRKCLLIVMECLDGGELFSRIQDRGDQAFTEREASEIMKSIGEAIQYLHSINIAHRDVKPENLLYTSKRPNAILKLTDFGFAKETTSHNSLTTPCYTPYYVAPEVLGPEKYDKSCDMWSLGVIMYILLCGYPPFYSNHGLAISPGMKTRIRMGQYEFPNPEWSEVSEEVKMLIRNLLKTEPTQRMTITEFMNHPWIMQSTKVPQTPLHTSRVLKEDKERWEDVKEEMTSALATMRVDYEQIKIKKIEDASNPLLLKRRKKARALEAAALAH

DAPK2 (human) = DAPK2 (human) (UniProt Q9UIK4)
Sequence of DAPK2 (human) (Q9UIK4 whole entry, looked up): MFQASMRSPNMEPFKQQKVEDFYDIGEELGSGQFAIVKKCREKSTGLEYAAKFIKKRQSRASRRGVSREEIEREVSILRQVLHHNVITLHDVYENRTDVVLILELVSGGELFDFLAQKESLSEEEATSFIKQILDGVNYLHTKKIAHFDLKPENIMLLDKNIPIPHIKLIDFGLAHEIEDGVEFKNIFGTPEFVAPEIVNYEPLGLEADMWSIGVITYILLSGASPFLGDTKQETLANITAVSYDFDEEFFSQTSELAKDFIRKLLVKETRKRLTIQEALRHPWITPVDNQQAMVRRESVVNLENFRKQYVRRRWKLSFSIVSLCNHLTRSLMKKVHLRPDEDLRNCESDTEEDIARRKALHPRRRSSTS

CAMK2B (human) = CAMK2B (human) (UniProt Q13554)
PIK3C2B (human) = PIK3C2B (human) (UniProt O00750)
RPS6KA2 KD2 (human) = RPS6KA2 KD2 (human) (UniProt Q15349)
FES (human) = FES (human) (UniProt P07332)
MST1R (human) = MST1R (human) (UniProt Q04912)
PIK3CB (human) = PIK3CB (human) (UniProt P42338)
FGFR1 (human) = FGFR1 (human) (UniProt P11362)
[5] = system: MET (human), P08581 [M1250T]

Sequence of LTK (human) (P29376 whole entry, looked up): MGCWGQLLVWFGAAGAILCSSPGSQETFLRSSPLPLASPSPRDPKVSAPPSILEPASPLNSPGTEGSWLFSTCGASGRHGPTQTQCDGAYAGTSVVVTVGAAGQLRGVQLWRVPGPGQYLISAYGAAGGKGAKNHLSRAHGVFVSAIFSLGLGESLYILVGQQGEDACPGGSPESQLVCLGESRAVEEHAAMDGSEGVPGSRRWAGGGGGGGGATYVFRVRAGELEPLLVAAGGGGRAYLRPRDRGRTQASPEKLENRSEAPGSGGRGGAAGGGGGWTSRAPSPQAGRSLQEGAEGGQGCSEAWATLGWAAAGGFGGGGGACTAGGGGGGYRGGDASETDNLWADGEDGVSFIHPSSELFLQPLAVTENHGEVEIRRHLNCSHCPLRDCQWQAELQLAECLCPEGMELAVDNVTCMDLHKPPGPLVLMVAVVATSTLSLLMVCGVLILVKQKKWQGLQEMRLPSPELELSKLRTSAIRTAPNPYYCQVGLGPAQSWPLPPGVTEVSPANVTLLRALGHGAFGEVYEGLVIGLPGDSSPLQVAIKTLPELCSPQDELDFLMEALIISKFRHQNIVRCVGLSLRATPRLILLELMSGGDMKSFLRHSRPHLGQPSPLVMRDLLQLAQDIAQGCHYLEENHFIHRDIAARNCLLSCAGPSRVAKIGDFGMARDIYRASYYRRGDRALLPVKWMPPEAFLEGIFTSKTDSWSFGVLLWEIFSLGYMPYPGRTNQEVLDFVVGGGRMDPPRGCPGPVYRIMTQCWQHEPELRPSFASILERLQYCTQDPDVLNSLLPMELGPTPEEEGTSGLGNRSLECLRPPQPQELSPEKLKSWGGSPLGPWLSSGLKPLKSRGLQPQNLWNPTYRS

| SMILES | kinase still bound, per cent of control (CLK3 (human)) [%] | kinase still bound, per cent of control (MKNK1 (human)) [%] | kinase still bound, per cent of control (LTK (human)) [%] | kinase still bound, per cent of control (MYLK2 (human)) [%] | kinase still bound, per cent of control (CSK (human)) [%] | kinase still bound, per cent of control (PLK2 (human)) [%] | kinase still bound, per cent of control (STK38L (human)) [%] | kinase still bound, per cent of control (MAPK1 (human)) [%] | kinase still bound, per cent of control (PDGFRB (human)) [%] | kinase still bound, per cent of control (DYRK1B (human)) [%] | kinase still bound, per cent of control (PIP5K1C (human)) [%] | kinase still bound, per cent of control (MAP4K5 (human)) [%] | kinase still bound, per cent of control (SLK (human)) [%] | kinase still bound, per cent of control (EIF2AK1 (human)) [%] | kinase still bound, per cent of control (PAK4 (human)) [%] | kinase still bound, per cent of control (MAPKAPK5 (human)) [%] | kinase still bound, per cent of control (OXSR1 (human)) [%] | kinase still bound, per cent of control (PIP4K2C (human)) [%] | kinase still bound, per cent of control [2] [%] | kinase still bound, per cent of control (FGR (human)) [%] | other results |
| --- | --- | --- | --- | --- | --- | --- | --- | --- | --- | --- | --- | --- | --- | --- | --- | --- | --- | --- | --- | --- | --- |
| COC(=O)Nc1ccc(-c2nc(N3CCOCC3)c3cnn(C4CCN(C(=O)OC)CC4)c3n2)cc1 | 100 | 37 | 87 | 100 | 98 | 96 | 97 | 100 | 100 | 93 | 100 | 100 | 70 | 56 | 100 | 100 | 90 | 12 | 100 | 96 | kinase still bound, per cent of control [1]: 88%; kinase still bound, per cent of control (FRK (human)): 99%; kinase still bound, per cent of control (TXK (human)): 92%; kinase still bound, per cent of control (CSF1R (human)): 90%; kinase still bound, per cent of control (ITK (human)): 91%; per cent of control (CDKL5 (human)): 100%; kinase still bound, per cent of control (RPS6KA6 KD2 (human)): 96%; kinase still bound, per cent of control [3]: 74%; kinase still bound, per cent of control (RPS6KA2 KD1 (human)): 100%; kinase still bound, per cent of control (NTRK1 (human)): 71%; kinase still bound, per cent of control [4]: 100%; kinase still bound, per cent of control (MAPKAPK2 (human)): 100%; kinase still bound, per cent of control (DAPK2 (human)): 96%; kinase still bound, per cent of control (CAMK2B (human)): 100%; kinase still bound, per cent of control (PIK3C2B (human)): 100%; kinase still bound, per cent of control (RPS6KA2 KD2 (human)): 100%; kinase still bound, per cent of control (FES (human)): 100%; kinase still bound, per cent of control (MST1R (human)): 82%; kinase still bound, per cent of control (PIK3CB (human)): 42%; kinase still bound, per cent of control (FGFR1 (human)): 100% |
| CC(C)n1nc(-c2cc3cc(O)ccc3[nH]2)c2c(N)ncnc21 | 66 | 19 | 16 | 43 | 15 | 13 | 63 | 100 | 0 | 59 | 9.8 | 72 | 0.2 | 93 | 13 | 86 | 80 | 9.9 | 8.2 | 5.6 | kinase still bound, per cent of control (FRK (human)): 12%; kinase still bound, per cent of control (TXK (human)): 3%; kinase still bound, per cent of control (CSF1R (human)): 33%; kinase still bound, per cent of control (ITK (human)): 100%; per cent of control (CDKL5 (human)): 100%; kinase still bound, per cent of control [5]: 100%; kinase still bound, per cent of control (RPS6KA6 KD2 (human)): 47%; kinase still bound, per cent of control [3]: 0.2%; kinase still bound, per cent of control (RPS6KA2 KD1 (human)): 48%; kinase still bound, per cent of control (NTRK1 (human)): 46%; kinase still bound, per cent of control [4]: 0%; kinase still bound, per cent of control (MAPKAPK2 (human)): 100%; kinase still bound, per cent of control (DAPK2 (human)): 3.8%; kinase still bound, per cent of control (CAMK2B (human)): 63%; kinase still bound, per cent of control (PIK3C2B (human)): 5.6%; kinase still bound, per cent of control (RPS6KA2 KD2 (human)): 62%; kinase still bound, per cent of control (FES (human)): 100%; kinase still bound, per cent of control (MST1R (human)): 89%; kinase still bound, per cent of control (PIK3CB (human)): 0%; kinase still bound, per cent of control (FGFR1 (human)): 8.5% |
